CC(=O)c1cccc(O)c1
solubility (mole fraction)
Conditions	in benzene	in ethanol	in ethyl acetate	in isobutanol	in isopropanol	in methanol	in methyl acetate	in n-butanol	in n-propanol	in water
289.15 K	0.00506	0.166	0.158	0.119	0.176	0.156	0.16	0.154	0.152	0.00073
292.15 K	0.00532	0.175	0.168	0.126	0.184	0.169	0.171	0.163	0.161	0.00078
295.15 K	0.00707	0.19	0.18	0.146	0.201	0.185	0.182	0.172	0.18	0.001
298.15 K	0.00848	0.209	0.191	0.166	0.22	0.203	0.197	0.189	0.199	0.00106
301.15 K	0.0122	0.225	0.199	0.184	0.236	0.22	0.209	0.203	0.211	0.00113
304.15 K	0.015	0.245	0.214	0.205	0.256	0.239	0.229	0.221	0.23	0.00154
307.15 K	0.0198	0.263	0.235	0.235	0.275	0.255	0.253	0.242	0.252	0.00172
310.15 K	0.0238	0.287	0.254	0.265	0.3	0.279	0.274	0.261	0.274	0.00199
313.15 K	0.0281	0.308	0.277	0.293	0.324	0.302	0.298	0.284	0.299	0.00245
316.15 K	0.0308	0.335	0.304	0.32	0.349	0.328	0.324	0.309	0.329	0.00291
319.15 K	0.037	0.361	0.333	0.348	0.372	0.349	0.346	0.335	0.36	0.00362
322.15 K	0.0453	0.391	0.364	0.38	0.401	0.383	0.376	0.368	0.395	0.00456
325.15 K	0.0614	0.42	0.384	0.421	0.431	0.409	0.407	0.402	0.425	0.00562

From BigSolDB 2.1
